Test results reported in patent US8859508B2, “Application of 5-methyl-1,3-benzenediol or derivatives thereof in the preparation of medicines and functional foods for treatment or prevention of depression” (Kunming Institute of Botany, Chinese Academy of Sciences, priority 2007, dated 2014).

Legend:
DD model mice = test: TST in constant darkness (DD) model mice; assay type: in vivo, mouse; conditions: for Immobility time (s) (mean ± SEM): oral once a day for 1 week
Method: Kunming mice (Certificate Number: A4CXK(Chuan)2003-16) from the Institute of Experimental Animals, People's Hospital of Sichuan Province, were used. They were 3-4 weeks old at the beginning of the experiments and weighed 25-30 g. ORG was prepared as described in Example 1. Animals were divided into experimental groups with different doses, vehicle control groups, and an imipramine group (Sigma, Batch No. 106k1588) as positive control.
DD model in mice: Mice were kept under 24 h continuous dark conditions. The replacement of padding, addition of food and water, and other operations were undertaken in the condition that the intensity of red light was less than 1.0 lux. The period of this condition lasted for 28 days. In the last week, ORG was administered orally once a day for 1 week. The FST and TST were carried out 30 min after the last administration. Methods and data analysis were as described above.

rats = test: Subacute toxicity test of ORG in rats; assay type: in vivo
Method: Rats (Certificate Number: A4CXK(Chuan)2003-16) from the Institute of Experimental Animals, People's Hospital of Sichuan Province, were used. Their weight was 250-300 g. ORG was prepared as described in Example 1.
There was no significant difference between the two groups.

[1] = system: LTP in the CA1 area of hippocampus; test: Long-term potentiation (LTP) recording in hippocampal slices of footshock-stressed rats; assay type: cell-based, rat
Method: Rats weighing 250-300 g, from the Institute of Experimental Animals, People's Hospital of Sichuan Province, were used. ORG was prepared as described in Example 1. Fluoxetine was from Wuhan Yuancheng Technology Co. (Wuhan, China; Batch No: 1004-0801002).
Method of long-term potentiation (LTP) recording in hippocampus: Excitatory postsynaptic potentials (EPSPs) in the hippocampus were recorded to determine the anti-stress effect of ORG. Stress impairs LTP in the CAl area of hippocampus, and this can be rescued by anti-stress drugs. Rats were stressed by footshock as follows: 1 mA, 2 s, 5 times at intervals of 2 min. Hippocampal slices were prepared, incubated for 1 h at 34-36° C., and then kept at room temperature. ORG was applied in the bath solution. EPSPs mediated by NMDA and AMPA receptors in the CA1 region were recorded until the baseline was stable for 20 min. Then high frequency stimulation (HFS, 100 Hz, 100 pulses, 20 s interval) was used to induce LTP. The EPSPs were recorded for 1 h after HFS.
Data Analysis: Data are expressed as mean±SEM and LTP is expressed as the percentage of the average amplitude of the last 10 min relative to the baseline. One-way ANOVA was used followed by the LSD test with SPSS 11 software. The significance level was set at P<0.05.

Kunming mice = test: Tail suspension test (TST) in mice
[2] = 1750 mg/kg orally once per day for 14 consecutive days

Structure (SMILES): Cc1cc(O)cc(OC2OC(CO)C(O)C(O)C2O)c1 [ORG, orcinol-1-O-β-D-glucopyranoside]
- therapeutic index = TD50÷ED50 (DD model mice; DD mice): > 1000
- Immobility time (s) (mean ± SEM) (DD model mice; DD mice, 5 mg/kg): 146.30 ± 11.66 s
- Immobility time (s) (mean ± SEM) (DD model mice; DD mice, 10 mg/kg): 145.31 ± 12.41 s
- Immobility time (s) (mean ± SEM) (DD model mice; DD mice, 20 mg/kg): 140.69 ± 14.138 s
- Immobility time (s) (mean ± SEM) (DD model mice; DD mice, test 30 min after last dose, 1.25 mg/kg): 171.20 ± 13.02 s
- dose of the best efficacy (DD model mice; DD model mice, ORG oral): 20 mg/kg
- ED50 (DD model mice; Mus musculus, DD model mice, ORG oral): ~1.75 mg/kg
- subacute toxicity: appearance, behavior, mental status, appetite, hair, color, breathing (rats; [2]): nothing abnormal was found
- subacute toxicity: survival (rats; [2]): All rats survived
- subacute toxicity: weight gain (rats; [2]): the weight gain was normal
- subacute toxicity: pathological section of visceral organs (rats; 1750 mg/kg orally once per day for 14 days, sacrificed on day 14): no evident abnormalities
- LTP, Average of last 10 min (mean ± SEM) ([1]; control (non-stressed) slices incubated with 5 μM, percentage of average EPSP amplitude of last 10 min relative to baseline): 122.93 ± 3.75
- LTP, Average of last 10 min (mean ± SEM) ([1]; footshock (FS) stressed rat slices incubated with 50 nM, percentage relative to baseline): 128.99 ± 7.30
- LTP, Average of last 10 min (mean ± SEM) ([1]; footshock (FS) stressed rat slices incubated with 5 μM, percentage relative to baseline): 189.56 ± 23.6
- ED50 (Kunming mice; Mus musculus): ~0.73 mg/kg
- dose of the best efficacy (Kunming mice; TST mice, ORG i.g. 24 h and 5 h before test): 12 mg/kg
- Immobility time (s) (mean ± SEM) (Kunming mice; TST mice, i.g. 24 h and 5 h before test, 0.1875 mg/kg): 161.70 ± 6.89 s
- Immobility time (s) (mean ± SEM) (Kunming mice; TST mice, i.g., 0.375 mg/kg): 155.68 ± 6.77 s
- Immobility time (s) (mean ± SEM) (Kunming mice; TST mice, i.g., 0.5 mg/kg): 125.30 ± 6.93 s
- Immobility time (s) (mean ± SEM) (Kunming mice; TST mice, i.g., 0.75 mg/kg): 117.33 ± 6.56 s
- Immobility time (s) (mean ± SEM) (Kunming mice; TST mice, i.g., 1.5 mg/kg): 109.27 ± 6.81 s
- Immobility time (s) (mean ± SEM) (Kunming mice; TST mice, i.g., 3 mg/kg): 98.07 ± 5.95 s
- Immobility time (s) (mean ± SEM) (Kunming mice; TST mice, i.g., 6 mg/kg): 89.73 ± 5.02 s
- Immobility time (s) (mean ± SEM) (Kunming mice; TST mice, i.g., 12 mg/kg): 77.67 ± 5.33 s
- Immobility time (s) (mean ± SEM) (Kunming mice; TST mice, i.g., 24 mg/kg): 91.03 ± 7.44 s
- Immobility time (s) (mean ± SEM) (Kunming mice; TST mice, i.g., 48 mg/kg): 100.20 ± 10.46 s
- Immobility time (s) (mean ± SEM) (Kunming mice; TST mice, i.g., 96 mg/kg): 107.68 ± 8.85 s
- therapeutic index (TI) = TD50÷ED50 (Kunming mice; mice, TST): > 2397
